Results on two compounds are retold here after patent US20100323989A1, “PHARMACEUTICAL COMBINATIONS USEFUL FOR TREATING HCV” (Gilead Sciences, Inc., priority 2009, published 2010).

Molecules are shown by their SMILES. Some results are limits rather than exact numbers.

The subject of series [1] is HCV genotype 1b replicon cells (Huh-luc). Kind of series: EC50 determination in HCV genotype 1b Huh-luc replicon cells (luciferase). In kind it is cell-based. Conditions: Hepatitis C virus, 72 h, 3 days, average ± standard deviation. The protocol:
HCV genotype 1b replicon cells (Huh-luc) were obtained from Reblikon (Mainz, Germany). The replicon in these cells is designated I389luc-ubi-neo/NS3-3′/ET and encodes a selectable resistance marker (neomycin phosphotransferase) as well as the firefly luciferase reporter gene. Huh-luc cells were maintained in Dulbecco's Modified Eagle's Medium (DMEM; GIBCO, Carlsbad, Calif.) supplemented with 10% fetal bovine serum (FBS; Hyclone, Logan, Utah) and 0.5 mg/mL of G-418 (GIBCO). Cells were passaged twice a week and maintained at subconfluent levels.
Replicon cells were seeded in 96-well plates at a density of 5×10^3 cells per well in 100 μL of DMEM culture medium, excluding G-418. Compounds 1 and 2 were serially diluted 1:3 in 100% DMSO (Sigma). These serial dilutions were added to the cells at a 1:200 dilution to achieve a final concentration of 0.5% DMSO in a total volume of 200 μL. […] HCV replication levels in drug-treated samples were expressed as a percentage of those in untreated controls (defined as 100%), and data were fit to the logistic dose response equation y=a/(1+(x/b)c) using XLFit4 software (IDBS, Emeryville, Calif.). EC50 values were calculated from the resulting equations as described previously (Delaney, W. E., et al., Antimicrobial Agents Chemotherapy, 45(6):1705-1713 (2001)).
On the technique in general: Replicon systems follow genome replication, usually without infectious particles.

Series [2] relates to panel of protease inhibitor resistance-associated-mutations (NS3) in 1b PI-luc replicon. Conditions: all NS3 protease mutants tested.
In series [3] the test system is mutant 1b Con-1 PI-Luc replicons (major HCV NS5B polymerase inhibitor resistance mutations). Kind of series: Transient transfection replicon assay, panel of NS5B polymerase inhibitor resistance mutations. The format is cell-based, HCV genotype 1b. The settings on record: against all NS5B mutations tested.
Series [4] in a line: Multiple-dose pharmacokinetic interaction study in healthy subjects (Example 5). The format is in vivo, human. As to the method:
Serial blood samples for analysis of plasma concentrations of Compound 2 were collected up to 120 hours after the morning dose on Days 7 and 21 to determine systemic drug exposure. Glossary of Abbreviations and Definitions of Terms Used in Example 5 • AUCtau The area under the concentration versus time curve over the dosing interval • AUC0-last Area under the concentration versus time curve from time zero to the last quantifiable concentration • AUCinf Area under the concentration versus time curve extrapolated to infinite time, calculated as AUC0-last+(Clast/λz) • BID twice daily • CI confidence interval • Cmax The maximum observed concentration of drug in plasma • Ctau The observed drug concentration at the end of the dosing interval • CV coefficient of variation

The mark [5] stands for this setting: Compound 1 (40 mg BID) + Compound 2 (75 mg BID) / Compound 2 alone.
[6] abbreviates: coadministration of Compound 1 (40 mg BID) with Compound 2 (75 mg BID) vs Compound 2 alone.

For orientation: EC50 means the concentration that produces a half-maximal response. With `Fc1ccccc1-c1nc2ccn(Cc3ccc(-c4ccc(C(F)(F)F)cc4C(F)(F)F)nn3)cc-2n1` [Compound 1, 5-({6-[2,4-bis(trifluoromethyl)phenyl]pyridazin-3-yl}methyl)-2-(2-fluorophenyl)-5H-imidazo[4,5-c]pyridine], it took 3 ± 2 nM to reach a half-maximal effect in series [1] (EC50). Further, the “fold change in EC50 values from wild-type” value in series [2] was at most 1.2 fold.
Take `COc1ccc2c(O[C@@H]3C[C@H]4C(=O)N[C@]5(P(=O)(O)Cc6c(F)cccc6F)C[C@H]5CCCCCCC[C@H](NC(=O)OC5CCCC5)C(=O)N4C3)cc(-c3csc(NC(C)C)n3)nc2c1Cl` [Compound 2]: the “fold change in EC50 values from wild-type” value in series [3] is at most 2.1 fold. For the same compound, in series [4] (setting [5]), the “Compound 2 AUCtau, % Geometric Least Square Mean Ratio (90% CI)” value was 75.9 (62.0, 93.0) %; the “Compound 2 Cmax, % Geometric Least Square Mean Ratio (90% CI)” value was 80.0 (66.7, 95.6) %; the “Compound 2 Ctau, % Geometric Least Square Mean Ratio (90% CI)” value was 70.0 (55.9, 87.5) %. Moreover, in series [4] (setting [6]), the “decrease in AUCtau of Compound 2” value came out at 24%, the “decrease in Cmax of Compound 2” value came to 20% and the “decrease in Ctau of Compound 2” value worked out at 30%. In addition, the AUC in series [4] (plasma, human, oral, Compound 2 (75 mg BID) alone, Day 7, read-out: Compound 2 AUCtau, Mean (% CV)) was 35300 ng·h/mL. The same compound gave an EC50 in series [1] of 11 ± 3 nM.
